Measured values: patent US9951032B2, “Antibacterial compounds” (Janssen Sciences Ireland UC, priority 2012, dated 2018)
≈ marks a conversion by molar mass, not a printed value. Read-outs that look alike come from different tables or passages of the source.

Key:
[1] = tested on: Mycobacterium tuberculosis (strain H37RV); assay: MIC90 determination for testing compounds against M. tuberculosis; type: cell-based
[2] = tested on: Mycobacterium tuberculosis (strain H37RV); assay: Time kill assay (kill kinetics), broth dilution method; type: cell-based

For `O=C(Nc1nc2cc(Cl)ccc2o1)NC12CC3CC(CC(C3)C1)C2`, the melting point was over 250 °C.

In the case of `O=C(Nc1nc2c(F)cc(F)cc2s1)NC12CC3CC(CC(C3)C1)C2` [Compound 1], the melting point is reported as over 260 °C, the MIC90 ([1]; Mycobacterium tuberculosis, H37RV, LV12076, 10% human serum) is reported as 1 µg/mL (≈ 2.75 µM) and the MIC90 ([1]; Mycobacterium tuberculosis, H37RV, LV12086, 20% human serum) is reported as 1 µg/mL (≈ 2.75 µM). The MIC90 ([1]; Mycobacterium tuberculosis, H37RV, LV12086, no human serum) was 0.25 µg/mL (≈ 0.688 µM), the MIC90 ([1]; Mycobacterium tuberculosis, H37RV, LV12076, no human serum) was 0.5 µg/mL (≈ 1.38 µM) and the “log CFU/ml” value ([2]; 0.5 μg/ml, day 0) was 6.35 log CFU/ml. For the same molecule, the “log CFU/ml” value ([2]; 0.5 μg/ml, day 1) was 5.57 log CFU/ml, the “log CFU/ml” value ([2]; 0.5 μg/ml, day 4) was 2.00 log CFU/ml and the “log CFU/ml” value ([2]; 0.5 μg/ml, day 7) was 2.00 log CFU/ml. The “log CFU/ml” value ([2]; 0.5 μg/ml, day 14) was 2.00 log CFU/ml, the “log CFU/ml” value ([2]; 0.5 μg/ml, day 21) was 2.00 log CFU/ml and the “log CFU/ml” value ([2]; 5 μg/ml, day 0) was 6.35 log CFU/ml. The “log CFU/ml” value ([2]; 5 μg/ml, day 1) was 6.15 log CFU/ml, the “log CFU/ml” value ([2]; 5 μg/ml, day 4) was 3.08 log CFU/ml and the “log CFU/ml” value ([2]; 5 μg/ml, day 7) was 2.00 log CFU/ml. For the same molecule, the “log CFU/ml” value ([2]; 5 μg/ml, day 14) was 2.00 log CFU/ml and the “log CFU/ml” value ([2]; 5 μg/ml, day 21) was 2.00 log CFU/ml.

`NNC(=O)c1ccncc1` [Isoniazid, reference compound] gave an MIC90 ([1]; LV12076, 10% human serum) of 0.03 µg/mL (≈ 0.219 µM), an MIC90 ([1]; LV12086, 20% human serum) of 0.03 µg/mL (≈ 0.219 µM) and an MIC90 ([1]; LV12086, no human serum) of 0.03 µg/mL (≈ 0.219 µM). For the same molecule, the MIC90 ([1]; Mycobacterium tuberculosis, H37RV, LV12076, no human serum, read-out: MIC90) was 0.03 µg/mL (≈ 0.219 µM), the “log CFU/ml” value ([2]; 1 μg/ml, day 0) was 6.35 log CFU/ml and the “log CFU/ml” value ([2]; 1 μg/ml, day 1) was 3.57 log CFU/ml. The “log CFU/ml” value ([2]; 1 μg/ml, day 4) was 2.00 log CFU/ml, the “log CFU/ml” value ([2]; 1 μg/ml, day 7) was 2.00 log CFU/ml and the “log CFU/ml” value ([2]; 1 μg/ml, day 14) was 2.00 log CFU/ml. For the same molecule, the “log CFU/ml” value ([2]; 1 μg/ml, day 21) was 2.00 log CFU/ml.
